Measurements published in patent US20110105389A1 (priority 2009, published 2011).
Values joined by “and” are separate entries in the source; they are usually repeats but may differ in a detail not shown here. Identical values can stand only once. Like-named read-outs stand apart in the source and are kept apart here.

Columns and labels:
[1] = biological target: T1, ghrelin receptor (HEK-GHSR1 stable cells) (Homo sapiens, UniProt Q92847); assay: Ghrelin receptor inverse agonist assay (HTRF IP-one), Method B4; assay type: cell-based
T1 construct: expressed in transfected cells
Summary of the method: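 HEK cells stably expressing GHSR1, seeded at 100 000 cells/well overnight, exposed to compound for 30 min at 37° C. Cells then lysed and IP1 accumulation measured by HTRF (d2 plus anti-IP1 cryptate, 1 h at room temp). Wells lacking d2 served as negative control.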

[2] = Plasma protein binding (equilibrium dialysis), Method B5; assay type: in vitro ADME; settings: 60 min at 37° C., typically 10 μM; for fraction unbound at 60 min, 10 μM: human plasma
Excerpt: B5. Plasma Protein Binding
The pharmacokinetic and pharmacodynamic properties of drugs are largely a function of the reversible binding of drugs to plasma or serum proteins such as albumin and α1-acid glycoprotein. In general, only unbound drug is available for diffusion or transport across cell membranes, and for interaction at the pharmacological target. On the other hand, drugs with low plasma protein binding generally have large volumes of distribution and rapid clearance since only unbound drug is available for glomerular filtration and, in some cases, hepatic clearance. Thus, the extent of plasma protein binding can influence efficacy, distribution and elimination. The ideal range for plasma protein binding is in the range of 87-98% for most drug products.
Protein binding studies were performed using human plasma. Briefly, 96-well microplates were used to incubate various concentrations of the test article for 60 min at 37° C. A concentration of 10 μM was a typical selection to be employed in this study. Bound and unbound fractions are separated by equilibrium dialysis, where the concentration remaining in the unbound fraction is quantified by LC-MS or LC-MS-MS analysis. […].

[3] = system: rat stomach fundus strips; assay: Ex-vivo potency evaluation on the rat stomach fundus (inhibition of ghrelin-induced contractility), Method B10; settings: EFS
Experimental: B10. Ex-vivo Potency Evaluation on the Rat Stomach Fundus
Fundus strips (approximately 0.4×1 cm) were cut from the stomach of adult male Wistar rats parallel to the circular muscle fibers. They were placed between two platinum ring electrodes, 1 cm apart (Radnoti, ADlnstruments, USA) in 10 ml tissue baths containing Krebs solution bubbled with 5% CO2 in O2 and maintained at 37° C. Tissues were suspended under 1.5 g resting tension. Changes of tension were measured isometrically with force transducers and recorded with a PowerLab 8/30 data acquisition system (ADlnstruments, USA). Tissues were allowed to equilibrate for 60 min during which time bath solutions were changed every 15 min.
EFS was achieved by applying 0.5 ms pulses, 5 Hz frequency, at a maximally effective voltage of 70 V. EFS was applied for 30 sec at 3 min intervals for a 30 min initial period. This initial period was separated by a […] interval with wash out of the bath solution. Then, a second period of stimulation was started. […] Responses to the agents were measured and expressed as % of the mean of three or four pre-drug responses to EFS. All compounds were dissolved at 1 mM in distilled water or MeOH, as stock solutions.
IC50 values for the inhibition of ghrelin-induced contractility by representative compounds of the invention are presented in Table 7.

CYP2D6 = CYP2D6 (Homo sapiens, UniProt P10635); assay: biochemical
CYP3A4 = CYP3A4 (Homo sapiens, UniProt P08684); assay: biochemical
[4] = Pharmacokinetic analysis (intravenous and oral), Method B9; assay type: in vivo; settings: for % F: 2 mg/mL intravenous and 8 mg/mL oral typically employed; for Tmax: individual values; for Vd: read-out: Vz
Excerpt: B9. Pharmacokinetic Analysis
The pharmacokinetic (PK) behavior of compounds of the invention and their pharmaceutical compositions can be ascertained by methods well known to those skilled in the art and can be used to investigate the pharmacokinetic parameters (elimination half-life, total plasma clearance, etc.) for intravenous, subcutaneous and oral administration of these substances. (Wilkinson, G. R. “Pharmacokinetics: The Dynamics of Drug Absorption, Distribution, and Elimination” in Goodman & Gilman's The Pharmacological Basis of Therapeutics, Tenth Edition, Hardman, J. G.; Limbird, L. E., Eds., McGraw Hill, Columbus, Ohio, 2001, Chapter 1.) See also U.S. Pat. Nos. 7,476,653; 7,491,695; Intl. Pat. Appl. WO 2008/033328 and U.S. Patent Appl. Publ. 2008/0194672. As an example, compound 1505 has the PK profile below.
The determination of PK parameters for additional representative compounds of the invention is presented in the Examples.
A detailed analysis of the pharmacokinetic profile of representative compounds of the invention was conducted using the procedures outlined in Method B9.
A dose level of 2 mg/mL for intravenous administration and 8 mg/mL for oral administration were typically employed.

[5] = inverse agonist at the ghrelin receptor, Method B4
[6] = Table 10b, 2 mg/mL intravenous typically employed
[7] = plasma, Oral, 8 mg/kg, read-out: Cmax
[8] = plasma, Table 10b, 2 mg/mL intravenous typically employed

T1 sequence (Q92847 whole entry): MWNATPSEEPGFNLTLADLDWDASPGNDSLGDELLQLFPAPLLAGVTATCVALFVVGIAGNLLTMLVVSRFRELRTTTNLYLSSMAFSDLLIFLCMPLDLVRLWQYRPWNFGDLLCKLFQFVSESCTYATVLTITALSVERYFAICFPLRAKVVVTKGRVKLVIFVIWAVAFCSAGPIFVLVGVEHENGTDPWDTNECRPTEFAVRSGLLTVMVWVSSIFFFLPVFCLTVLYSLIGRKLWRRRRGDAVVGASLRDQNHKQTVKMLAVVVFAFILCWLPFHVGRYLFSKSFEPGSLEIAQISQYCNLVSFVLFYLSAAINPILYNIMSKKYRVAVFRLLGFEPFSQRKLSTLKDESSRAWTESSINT
Sequence of CYP2D6 (P10635 whole entry): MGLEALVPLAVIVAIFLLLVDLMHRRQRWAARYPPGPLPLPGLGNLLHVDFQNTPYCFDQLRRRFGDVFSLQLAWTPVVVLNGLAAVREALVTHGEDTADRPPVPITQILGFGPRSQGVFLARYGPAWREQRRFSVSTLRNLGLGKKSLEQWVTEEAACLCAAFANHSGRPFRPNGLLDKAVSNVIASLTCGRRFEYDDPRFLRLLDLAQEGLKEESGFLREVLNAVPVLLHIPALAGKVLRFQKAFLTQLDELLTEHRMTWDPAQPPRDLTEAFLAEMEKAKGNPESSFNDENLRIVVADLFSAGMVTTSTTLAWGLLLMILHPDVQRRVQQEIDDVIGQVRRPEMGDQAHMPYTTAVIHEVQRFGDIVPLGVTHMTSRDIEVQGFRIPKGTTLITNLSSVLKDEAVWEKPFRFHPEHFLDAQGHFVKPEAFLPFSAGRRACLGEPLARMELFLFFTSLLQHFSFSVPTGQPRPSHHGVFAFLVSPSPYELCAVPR
Sequence of CYP3A4 (P08684 whole entry): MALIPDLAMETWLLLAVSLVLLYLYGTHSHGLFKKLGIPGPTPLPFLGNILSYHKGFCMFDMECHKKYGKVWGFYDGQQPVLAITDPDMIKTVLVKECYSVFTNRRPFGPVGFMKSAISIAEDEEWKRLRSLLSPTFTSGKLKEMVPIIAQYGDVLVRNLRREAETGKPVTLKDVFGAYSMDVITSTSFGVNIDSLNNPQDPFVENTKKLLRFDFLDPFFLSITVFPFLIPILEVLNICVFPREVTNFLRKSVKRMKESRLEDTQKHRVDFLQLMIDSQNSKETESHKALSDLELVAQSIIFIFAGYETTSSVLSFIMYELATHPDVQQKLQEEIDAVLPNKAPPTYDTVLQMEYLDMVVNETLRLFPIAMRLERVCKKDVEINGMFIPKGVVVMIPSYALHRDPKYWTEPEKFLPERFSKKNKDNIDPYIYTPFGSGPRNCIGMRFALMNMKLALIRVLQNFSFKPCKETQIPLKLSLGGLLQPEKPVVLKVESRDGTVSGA

Structure (SMILES)	IC50 [3] [nM]	IC50 [1, 5] [nM]	Binding (%), Human Plasma Protein Binding [2] [%]	% F ([4]; Table 10b) [%]	Cl [4, 6] [mL/min/kg]	t1/2 [4, 6] [h]	other results
Cc1cccc(C[C@H]2NC(=O)[C@H](C(C)O)N(C)C(=O)[C@H](C(C)C)NCCOc3ccccc3C[C@H](O)CNC2=O)c1 (stereo partly drawn) [Compound 1453]	2900	–	–	–	–	–	IC50 [1]: 10 to 50 nM; fraction unbound at 60 min, 10 μM [2]: 0.243; IC50 (CYP2D6): 9210 nM and 9200 nM; IC50 (CYP3A4): 13400 nM and 3700 nM
CC(C)C1NCCOc2ccccc2C#CCNC(=O)C(Cc2c[nH]c3ccccc23)NC(=O)C(C(C)O)N(C)C1=O (stereo not drawn) [Compound 1692]	–	100 to 500	98.2	–	–	–	–
CC(C)C1NCCOc2cc(F)ccc2C#CCNC(=O)C(Cc2c[nH]c3ccccc23)NC(=O)C(C(C)O)N(C)C1=O (stereo not drawn) [Compound 1693]	–	100 to 500	–	5 ± 2	35 ± 18	0.683 ± 0.067	–
CCC1CCc2ccc(F)cc2OCCNC(C2(C)CC2)C(=O)N(C)C(C(C)O)C(=O)NC(Cc2c[nH]c3ccccc23)C(=O)N1 (stereo not drawn) [Compound 1703]	–	50 to 100	99.5	12 ± 6	9 ± 6	2.45 ± 0.867	–
CC[C@@H]1C#Cc2ccc(F)cc2O[C@H](C)CN[C@@H](C2(C)CC2)C(=O)N(C)[C@@H](C(C)O)C(=O)N[C@H](Cc2c[nH]c3ccccc23)C(=O)N1 (stereo partly drawn) [Compound 1707]	–	100 to 500	99.6	–	8 ± 4	2.17 ± 0.433	–
CC(C)[C@@H]1NCCOc2ccccc2C#CCNC(=O)[C@@H](Cc2ccccc2)NC(=O)[C@H](C(C)O)N(C)C1=O (stereo partly drawn) [Compound 1712]	3.4	–	–	–	–	–	IC50 [1]: 50 to 100 nM; fraction unbound at 60 min, 10 μM [2]: 0.024; F ([4]; Oral, 8 mg/kg): 15 ± 10%; Tmax ([4]; Oral, 8 mg/kg): 15/15/15; AUC(0-inf) ([4]; plasma, Intravenous, 2 mg/kg): 544 ng·h/mL; clearance ([4]; plasma, Intravenous, 2 mg/kg): 62 ± 10 mL/min/kg; half-life ([4]; plasma, Intravenous, 2 mg/kg): 2.3 ± 1.43 h; Vd ([4]; plasma, Intravenous, 2 mg/kg): 13.2 ± 9.57 L/kg; AUC(0-inf) ([4]; plasma, Oral, 8 mg/kg): 336 ng·h/mL; Cmax [4, 7]: 352 ± 297 ng/mL; IC50 (CYP3A4): 5800 nM
CC(O)[C@H]1C(=O)N[C@H](Cc2c[nH]c3ccccc23)C(=O)N[C@H](C)C#Cc2ccccc2OCCN[C@@H](C2(C)CC2)C(=O)N1C (stereo partly drawn) [Compound 1713]	–	50 to 100	–	14 ± 9	30 ± 1	1.73 ± 0.417	–
CC[C@@H]1C#Cc2ccccc2O[C@H](C)CN[C@@H](C2(C)CC2)C(=O)N(C)[C@@H](C(C)O)C(=O)N[C@H](Cc2c[nH]c3ccccc23)C(=O)N1 (stereo partly drawn) [Compound 1718]	–	50 to 100	–	17 ± 6	5 ± 1	2.7 ± 0.067	–
CC(O)[C@H]1C(=O)N[C@H](Cc2c[nH]c3ccccc23)C(=O)N[C@H](C)CCc2ccc(F)cc2O[C@H](C)CN[C@@H](C2(C)CC2)C(=O)N1C (stereo partly drawn) [Compound 1719]	–	100 to 500	–	–	44 ± 3	1.55 ± 0.183	–
CC(O)[C@H]1C(=O)N[C@H](Cc2c[nH]c3ccccc23)C(=O)N[C@H](C)C#Cc2ccc(F)cc2O[C@H](C)CN[C@@H](C2(C)CC2)C(=O)N1C (stereo partly drawn) [Compound 1720]	–	100 to 500	–	–	33 ± 12	1.17 ± 0.25	–
CC[C@@H]1C#Cc2c(F)cccc2OCCN[C@@H](C(C)C)C(=O)N(C)[C@@H](C(C)O)C(=O)N[C@H](Cc2c[nH]c3ccccc23)C(=O)N1 (stereo partly drawn) [Compound 1726]	–	50 to 100	99.8	14 ± 8	9 ± 6	2.85 ± 0.267	–
CC[C@@H]1CCc2ccc(F)cc2OCCN[C@@H](C2(C)CC2)C(=O)N(C)[C@@H](C(C)O)C(=O)N[C@H](Cc2ccccc2)C(=O)N1 (stereo partly drawn) [Compound 1746]	–	50 to 100	–	59 ± 31	12 ± 1	1.78 ± 0.067	–
CC[C@@H]1CCc2ccc(F)cc2OCCN[C@@H](C(C)C)C(=O)N(C)[C@@H](C(C)O)C(=O)N[C@H](Cc2ccc(O)cc2)C(=O)N1 (stereo partly drawn) [Compound 1751]	–	100 to 500	97.4	34 ± 19	32 ± 5	0.767 ± 0.017	–
CC[C@@H]1C#Cc2ccccc2OCCN[C@@H](C(C)C)C(=O)N(C)[C@@H](C(C)O)C(=O)N[C@H](Cc2c[nH]c3ccccc23)C(=O)N1 (stereo partly drawn) [Compound 1754]	–	50 to 100	99.4	39 ± 44	8 ± 1	1.77 ± 0.217	–
CC[C@@H]1C#Cc2ccc(F)cc2OCCN[C@@H](C(C)C)C(=O)N(C)[C@@H](C(C)O)C(=O)N[C@H](Cc2c[nH]c3ccccc23)C(=O)N1 (stereo partly drawn) [Compound 1755]	–	50 to 100	99.3	7 ± 4	12 ± 13	2.05 ± 0.467	–
CC(C)[C@@H]1NCC2CCc3cccc(c3O2)CCCNC(=O)[C@@H](Cc2ccccc2)NC(=O)[C@H](C(C)O)N(C)C1=O (stereo partly drawn) [Compound 1777]	7.8	50 to 100	95.8	–	–	–	AUCinf ([4]; Intravenous, 2 mg/kg): 369904 ± 127112 ng·min/mL; Cl ([4]; Intravenous, 2 mg/kg): 6 ± 2 mL/min/kg; Vz ([4]; Intravenous, 2 mg/kg): 0.882 ± 0.272 L/kg; t1/2 ([4]; Intravenous, 2 mg/kg): 1.78 ± 0.067 h; AUCinf ([4]; Oral, 8 mg/kg): 190433 ± 114760 ng·min/mL; Cmax ([4]; Oral, 8 mg/kg): 1075 ± 772 ng/mL; F ([4]; Oral, 8 mg/kg): 13 ± 8%; Tmax ([4]; Oral, 8 mg/kg): 15/30/15/15/15/15
CC(C)[C@@H]1NCCOc2ccccc2C2CCC(C2)NC(=O)[C@@H](Cc2c[nH]c3ccccc23)NC(=O)[C@H](C(C)O)N(C)C1=O (stereo partly drawn) [Compound 1843]	2.3	10 to 50	92.1	–	–	–	–
CC(C)[C@@H]1NCCOc2ccccc2C2CCC(C2)NC(=O)[C@@H](Cc2ccccc2)NC(=O)[C@H](C(C)O)N(C)C1=O (stereo partly drawn) [Compound 1848]	15	–	–	–	–	–	fraction unbound at 60 min, 10 μM [2]: 0.207; F ([4]; Oral, 8 mg/kg): 11 ± 2%; Tmax ([4]; Oral, 8 mg/kg): 30/30; AUC(0-inf) ([4]; plasma, Intravenous, 2 mg/kg): 2600 ng·h/mL; clearance ([4]; plasma, Intravenous, 2 mg/kg): 17 ± 9 mL/min/kg; half-life ([4]; plasma, Intravenous, 2 mg/kg): 1.8 ± 0.85 h; Vd ([4]; plasma, Intravenous, 2 mg/kg): 2.55 ± 1.47 L/kg; AUC(0-inf) ([4]; plasma, Oral, 8 mg/kg): 1110 ng·h/mL; Cmax [4, 7]: 421 ± 16 ng/mL; IC50 (CYP2D6): 14100 nM; IC50 (CYP3A4): 8000 nM
CC(C)[C@@H]1NCCOc2ccccc2C2CCC(C2)NC(=O)[C@@H](Cc2ccc(F)cc2)NC(=O)[C@H](C(C)O)N(C)C1=O (stereo partly drawn) [Compound 1903]	1.6	–	–	–	–	–	fraction unbound at 60 min, 10 μM [2]: 0.159; IC50 (CYP2D6): 8000 nM; IC50 (CYP3A4): 9000 nM
CC(O)[C@H]1C(=O)N[C@H](Cc2ccccc2)C(=O)NCC#Cc2ccc(F)cc2OCCN[C@@H](C2(C)CC2)C(=O)N1C (stereo partly drawn) [Compound 1918]	26	–	–	–	–	–	IC50 [1]: 50 to 100 nM; clearance [4, 8]: 14 ± 7 mL/min/kg; half-life [4, 8]: 1.9 ± 0.883 h; IC50 (CYP2D6): 8100 nM; IC50 (CYP3A4): 16300 nM
CC(C)[C@@H]1NCCOc2cccc(F)c2C#CCNC(=O)[C@@H](Cc2ccccc2)NC(=O)[C@H](C(C)O)N(C)C1=O (stereo partly drawn) [Compound 1929]	2	–	–	–	–	–	IC50 [1]: 50 to 100 nM; F ([4]; Oral, 8 mg/kg): 42 ± 51%; Tmax ([4]; Oral, 8 mg/kg): 15/15/30; AUC(0-inf) ([4]; plasma, Intravenous, 2 mg/kg): 1060 ng·h/mL; clearance ([4]; plasma, Intravenous, 2 mg/kg): 32 ± 4 mL/min/kg; half-life ([4]; plasma, Intravenous, 2 mg/kg): 2.83 ± 1.03 h; Vd ([4]; plasma, Intravenous, 2 mg/kg): 7.99 ± 3.7 L/kg; AUC(0-inf) ([4]; plasma, Oral, 8 mg/kg): 1790 ng·h/mL; Cmax [4, 7]: 628 ± 766 ng/mL; IC50 (CYP2D6): 25700 nM
